# Test results taken from US20150322051A1, “Macrocyclic picolinamides as fungicides” (Dow AgroSciences LLC, priority 2014, published 2015).
# Like-named read-outs stand apart in the source and are kept apart here.
# Key:
# Assay type in all cases: in vivo
# [1] = system: Rhyncosporium secalis (RHYNSE); assay: Barley scald (RHYNSE) whole-plant fungicidal test; conditions: 1 Day Protectant
# Description: (§1) All fungicides were evaluated using the aforementioned method for their activity vs. all target diseases, unless stated otherwise. Wheat leaf blotch and brown rust activity were also evaluated using track spray applications, in which case the fungicides were formulated as EC formulations, containing 0.1% Trycol 5941 in the spray solutions. Wheat plants (variety Yuma) were grown from seed in a greenhouse in 50% mineral soil/50% soil-less Metro mix until the first leaf was fully emerged, with 7-10 seedlings per pot. These plants were inoculated with an aqueous spore suspension of Septoria tritici either prior to or after fungicide treatments. After inoculation the plants were kept in 100% relative humidity (one day in a dark dew chamber followed by two to three days in a lighted dew chamber at 20° C.) to permit spores to germinate and infect the leaf. The plants were then transferred to a greenhouse set at 20° C. for disease to develop. When disease symptoms were fully expressed on the 1st leaves of untreated plants, infection levels were assessed on a scale of 0 to 100 percent disease severity. Percent disease control was calculated using the ratio of disease severity on treated plants relative to untreated plants. Barley seedlings (variety Harrington) were propagated in soil-less Metro mix, with each pot having 8 to 12 plants, and used in the test when first leaf was fully emerged. […]
# [2] = system: Leptosphaeria nodorum (LEPTNO); assay: Wheat glume blotch (LEPTNO) whole-plant fungicidal test; conditions: 1 Day Protectant
# [3] = system: Puccinia triticina; synonym: Puccinia recondita f. sp. tritici (PUCCRT); assay: Wheat brown rust (PUCCRT) whole-plant fungicidal test; conditions: topical, low volume (track spray) application, 121.5 g/H
# [4] = system: Erysiphe cichoracearum (ERYSCI); assay: Powdery mildew of cucumber (ERYSCI) whole-plant fungicidal test; conditions: 1 Day Protectant
# [5] = system: Venturia inaequalis (VENTIN); assay: Apple scab (VENTIN) whole-plant fungicidal test; conditions: 1 Day Protectant
# [6] = system: Uncinula necator (UNCINE); assay: Grape powdery mildew (UNCINE) whole-plant fungicidal test; conditions: 1 Day Protectant
# [7] = system: Glomerella lagenarium; anamorph: Colletotrichum lagenarium (COLLLA); assay: Cucumber anthracnose (COLLLA) whole-plant fungicidal test; conditions: 1 Day Protectant
# Description: as §1, with “Cucumber” for “Barley”, “Bush Pickle)” for “Harrington)”, “one plant,” for “8 to 12 plants,”, “12 to 14 days old.” for “first leaf was fully emerged.”
compound,measurement,setting,value
CCCC[C@@H]1[C@@H](Cc2ccc(C(F)(F)F)cc2)CCC[C@H](NC(=O)c2nccc(OC)c2OCOC(C)=O)C(=O)O[C@H]1C [Compound 3],Disease Control at 100 ppm RHYNSE 1DP,[1],B (≦70)
same,Disease Control at 100 ppm LEPTNO 1DP,[2],A (>70)
same,pest or weed control at 121.5 g/ha,"[3]; 24 h, 1 Day Protectant, read-out: Low Volume activity at 121.5 g/H PUCCRT 1DP (% disease control rating)",> 70%
same,pest or weed control at 121.5 g/ha,"[3]; 72 h, 3 Day Curative, read-out: Low Volume activity at 121.5 g/H PUCCRT 3DC (% disease control rating)",< 70%
same,Disease Control at 100 ppm ERYSCI 1DP,[4],A (>70)
same,Disease Control at 100 ppm VENTIN 1DP,[5],A (>70)
same,Disease Control at 100 ppm UNCINE 1DP,[6],A (>70)
same,Disease Control at 100 ppm COLLLA 1DP,[7],A (>70)
